How the values were obtained:
Assay type in all cases: biochemical
human cathepsin K = target: T1, human cathepsin K (Homo sapiens, UniProt P43235); assay: Assay of cathepsin K inhibitory activity in vitro; conditions: IC50 against human cathepsin K; substrate Z-Phe-Arg-AMC 10 μM; 25° C.; read-out: Cat-K
T1 sequence (P43235 115-329): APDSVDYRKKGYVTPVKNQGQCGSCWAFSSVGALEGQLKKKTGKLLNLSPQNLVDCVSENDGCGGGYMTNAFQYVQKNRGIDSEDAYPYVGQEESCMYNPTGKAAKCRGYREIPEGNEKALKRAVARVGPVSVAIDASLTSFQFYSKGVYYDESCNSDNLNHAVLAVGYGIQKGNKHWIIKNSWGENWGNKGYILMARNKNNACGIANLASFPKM
Protocol: Assay Method of Cathepsin K Inhibitory Activity In Vitro
Using 45000-fold diluted cathepsin K solution and 10 μM Z-Phe-Arg-AMC as substrate, the test compound and cathepsin K solution were incubated at 25° C. for 15 min in a 15 μL reaction system according to the optimized experimental condition.

human cathepsin B = human cathepsin B (Homo sapiens, UniProt P07858); assay: Assay of cathepsin B inhibitory activity in vitro; conditions: IC50 against human cathepsin B; substrate Z-Phe-Arg-AMC 10 μM; 25° C.; read-out: Cat-B
Protocol: Assay Method of Cathepsin B Inhibitory Activity In Vitro
0.01 ng/μL was the final concentration of Cathepsin B in the enzyme reaction, and Z-Phe-Arg-AMC with the final concentration of 10 μM was added into the reaction system as substrate, in the reaction system the test compound and enzyme had been incubated at 25° C. for 15 min.

human cathepsin L = human cathepsin L (Homo sapiens, UniProt P07711); assay: Assay of cathepsin L inhibitory activity in vitro; conditions: IC50 against human cathepsin L; substrate Z-Phe-Arg-AMC 10 μM; 25° C.; read-out: Cat-L
Protocol: Assay Method of Cathepsin L Inhibitory Activity In Vitro
0.01 ng/μL was the final concentration of Cathepsin L in the enzyme reaction, and Z-Phe-Arg-AMC with the final concentration of 10 μM was added into the reaction system as substrate, in the reaction system the test compound and enzyme had been incubated at 25° C. for 15 min.

human cathepsin S = human cathepsin S (Homo sapiens, UniProt P25774); assay: Assay of cathepsin S inhibitory activity in vitro; conditions: IC50 against human cathepsin S; substrate Z-VVR-AMC 20 μM; 25° C.; read-out: Cat-S
Protocol: Assay Method of Cathepsin S Inhibitory Activity In Vitro
0.25 ng/L was the final concentration of Cathepsin S in the enzyme reaction, and Z-VVR-AMC with the final concentration of 20 μM was added into the reaction system as substrate, in the reaction system the test compound and enzyme had been incubated at 25° C. for 15 min.

Chain of human cathepsin L (P07711 114-333): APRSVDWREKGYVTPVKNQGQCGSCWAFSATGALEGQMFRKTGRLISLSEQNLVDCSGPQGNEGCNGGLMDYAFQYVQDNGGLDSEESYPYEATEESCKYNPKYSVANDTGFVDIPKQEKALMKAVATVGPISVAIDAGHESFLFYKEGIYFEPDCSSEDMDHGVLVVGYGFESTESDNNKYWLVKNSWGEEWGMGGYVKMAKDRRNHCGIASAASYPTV
Chain of human cathepsin S (P25774 115-331): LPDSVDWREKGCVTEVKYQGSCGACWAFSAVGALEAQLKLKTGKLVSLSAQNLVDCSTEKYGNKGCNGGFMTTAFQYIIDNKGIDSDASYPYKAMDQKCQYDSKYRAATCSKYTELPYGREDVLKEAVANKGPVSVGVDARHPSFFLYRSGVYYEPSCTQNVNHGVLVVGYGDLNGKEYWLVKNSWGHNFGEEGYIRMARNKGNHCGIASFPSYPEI

Row | Structure (SMILES) | IC50 (human cathepsin K) | IC50 (human cathepsin B) | IC50 (human cathepsin L) | IC50 (human cathepsin S)
1 | N#CC1(NC(=O)C2(NC(=O)c3cc4ccc(-c5ccc6c(c5)OCO6)cc4o3)CCC(F)(F)CC2)CC1 [Example 91] | 1.3 nM | 2500 nM | > 10000 nM | > 10000 nM
2 | N#CC1(NC(=O)C2(NC(=O)c3cc4ccc(-c5ccc(C(O)C6(O)CC6)cc5)cc4o3)CCC(F)(F)CC2)CC1 (centres unmarked) [Example 15, N-(1-((1-cyanocyclopropyl)carbamoyl)-4,4-difluorocyclohexyl)-6-(4-(hydroxy(1-hydroxycyclopropyl)methyl)phenyl)benzofuran-2-carboxamide] | 3.1 nM | 750 nM | > 10000 nM | 620 nM
3 | COc1ccc(-c2ccc3cc(C(=O)NC4(C(=O)NC5(C#N)CC5)CCC(F)(F)CC4)oc3c2)cc1OC [Example 4, N-(1-((1-cyanocyclopropyl)carbamoyl)-4,4-difluorocyclohexyl)-6-(3,4-dimethoxyphenyl)benzofuran-2-carboxamide] | 2.1 nM | 2500 nM | > 10000 nM | > 10000 nM
4 | N#CC1(NC(=O)C2(NC(=O)c3cc4ccc(-c5csc(C6(O)COC6)n5)cc4o3)CCCCC2)CC1 [Example 78] | 0.95 nM | 282 nM | ≥ 10000 nM | 2070 nM
5 | CS(=O)(=O)c1cccc(-c2ccc3cc(C(=O)NC4(C(=O)NC5(C#N)CC5)CCCCC4)oc3c2)c1 [Example 64] | 0.88 nM | 373 nM | > 10000 nM | 637 nM
6 | CS(=O)(=O)c1ccc(-c2ccc3cc(C(=O)NC4(C(=O)NC5(C#N)CC5)CCCCCC4)oc3c2)cc1 [Example 81] | 1.34 nM | 2400 nM | > 10000 nM | 1600 nM
7 | N#CC1(NC(=O)C2(NC(=O)c3cc4ccc(-c5ccc(C(O)CO)cc5)cc4o3)CCC(F)(F)CC2)CC1 (centres unmarked) [Example 6, N-(1-((1-cyanocyclopropyl)carbamoyl)-4,4-difluorocyclohexyl)-6-(4-(1,2-dihydroxyethyl)phenyl)benzofuran-2-carboxamide] | 3.1 nM | 750 nM | > 10000 nM | 620 nM
8 | N#CC1(NC(=O)C2(NC(=O)c3cc4ccc(-c5ccc6c(c5)OCCO6)cc4o3)CCC(F)(F)CC2)CC1 [Example 33, N-(1-((1-cyanocyclopropyl)carbamoyl)-4,4-difluorocyclohexyl)-6-(2,3-dihydrobenzo[b][1,4]dioxin-6-yl)benzofuran-2-carboxamide] | 2.95 nM | 2300 nM | > 10000 nM | > 10000 nM
